From US5945450A, “Naphthalene derivative” (Teijin Limited, priority 1994, dated 1999)
pIC50: −log10 of the molar value.

Assays:
TF (tissue factor) = experiment: Inhibitory effects on the TF production in LPS-stimulated human peripheral blood monocytes; type: cell-based; conditions: Monocyte, LPS 1 μg/ml, 16 hours
Protocol: Peripheral venous blood was sampled from the healthy person, and submitted to density-gradient centrifugation so that monocytes might be isolated. The monocytes thus obtained were washed with minimum essential medium (MEM, Gibco) and suspended in a culture medium (RPMI-1640(Gibco)+25 mM HEPES buffer+100 μg/ml streptomycin+100 U/ml penicillin G+2 mM L-glutamine) to give a suspension with a density of 1×10^6 cells/ml. A 0.15 ml of the cell suspension was placed onto each of the wells of a 96-well microplate, to which the compound of this invention as described in Tables 4-1 to 4-2 was added (0.05 ml of the culture medium), and the assembly was placed for 1 hour in a CO2 incubator for cultivation. Then, LPS (lipopolysaccarides, E. coli 0111B4, Difco) 1 μg/ml was added thereto, and the assembly was further cultured for 16 hours. After the supernatant being removed, the residue was washed with physiological saline, 0.1 ml of 16 mM OG (n-octyl-β-D-glucopyranoside) was added thereto, and the assembly was stirred to make TF soluble. A 0.2 ml of physiological saline was added to each residue (final dilution was […]) and this preparation was used for determination of the coagulation stimulating activity (TF-like activity). The test compound had been dissolved in DMSO to give a 0.1 M solution which was diluted with the culture medium prior to use. The final concentration of DMSO was 0.01% or less.
To each well of the microplate, 50 μl of human plasma and 50 μl of the test sample prepared as above for determination of the coagulation stimulating activity, or 50 μl of standard thromboplastin (human thromboplastin, Thromborel S, Behringwerke) were added. The microplate was incubated at 37° C. for 5 minutes, to which was added 25 mM CaCl2 (50 μl/well) containing phosphorous lipids (Platelin, Organon Teknica) at a concentration of […] to initiate coagulation. Coagulation was determined on the basis of absorption at 540 nm, and the measurement lasted 7 to 20 minutes. The data were analyzed with a data analyzing software SOFTMax (Molecular Devices) and the maximum rate time was taken as the coagulation time. The logarithmic values of the coagulation times and standard thromboplastin concentrations are plotted, and a regression parabola was drawn among the dots to give a test curve. From the curve, the inhibitory effect (%) of a given test compound on TF production was calculated. (Refer to J. Imnmunol. Methods, 133:21-29, 1990, and Proc. Natl. Acad. Sci. USA, 89:10370-10374, 1992).

IgE = experiment: In vivo inhibition of IgE production in TNP-KLH immunized mice; parameters: species or system BDF1 mice; conditions: 100 mg/kg/day subcutaneously, twice a day for 10 days, N=10
Protocol: (§1) TNP-KLH (trinitrophenyl-keyhole-lymphet-hemocyanin) was prepared by the method as described in J. Immunol., 97:421-430, 1966 from KLH and trinitrobenzene sulfonic acid. A […] of TNP-KLH suspended in 0.2 ml of saline and 1 mg of aluminum hydroxide gel were injected into the peritoneal cavity of BDF1 mice (8 weeks old) for immunization. From the day of immunization onward, the compound of this invention listed in Table 5 was given subcutaneously to the same animal twice a day for 10 days (100 mg/kg/day, dissolved in 0.5% Tween 80 in saline, and N=10). To the control group, 0.5% Tween 80 in saline was given at the same time schedule (N=10). Ten days after immunization, blood was extracted from the heart, and the concentrations of IgE, IgG1 and IgM antibodies were determined by ELISA (Immunol. Lett., 23:251-256, 1990, and Eur. J. Immunol., 20:2499-2503, 1990). Inhibition (%) of the antibody production with respect to the control was calculated.

IgG1 = experiment: In vivo inhibition of IgG1 production in TNP-KLH immunized mice; parameters: species or system BDF1 mice; conditions: 100 mg/kg/day subcutaneously, twice a day for 10 days, N=10
Protocol: as §1

IgM = experiment: In vivo inhibition of IgM production in TNP-KLH immunized mice; parameters: species or system BDF1 mice; conditions: 100 mg/kg/day subcutaneously, twice a day for 10 days, N=10
Protocol: as §1

human basophils = experiment: Inhibition of histamine release from human basophils; type: cell-based; parameters: dose or concentration left out as unconfirmed
Protocol: To human heparinized peripheral blood was added 1/10 volume of 6% Dextran 500 in saline, and the mixture was allowed to stand at room temperature for 1 hour, to isolate a plasma layer containing leukocytes. The leukocytes were separated by centrifugation, washed with PIPE-A (119 mM NaCl, 5 mM KCl, 25 mM PIPES, 40 mM NaOH, 5.6 mM glucose, and 0.03% human serum albumin), and suspended in PIPES-ACM (PIPES A, 1 mM CaCl2 and 0.4 mM MgCl2) to give a cell suspension of a density of 4×10^6 cells /ml. To this cell suspension was added the compound of this invention listed in Table 7 as a test drug (0.1 M solution of the compound in DMSO was diluted with PIPES-ACM to give a […]), or the cell suspension was left untouched. After 30 second, calcium ionophore A23187 ([…]) was added. The reaction was allowed to proceed at 37 for 45 minutes. The resulting mixture was centrifuged to isolate a supernatant. Histamine release in the supernatant was determined by the fluorescent method. Inhibitory effect (%) of a given compound of this invention on histamine release was calculated relative to the histamine release when the compound was not coexistent(refer to Allergy, 37:313-321, 1988).

[1] = tested on: leukotrien B4 (LTB4) production; experiment: Inhibition of leukotrien B4 (LTB4) production in RBL-1 basophils; type: cell-based; conditions: Rattus norvegicus; RBL-1 cells, calcium ionophore A23187
Protocol: The basophils from rats of RBL-1 line (Dainippon Pharmaceutical Co.) cultured on DMEM (Dulbecco's modified Eagle medium) containing 10% FCS suspended in 10 mM HEPES-NaOH buffer (pH 7.4), 90 mM NaCl, 3.7 mM KCl, 0.9 mM CaCl2, 5.6mM glucose, and the compound of this invention listed in Table 8 as a test drug, to give a suspension of a density of 2×10^6 cells/ml. The suspension was allowed to stand at 37 for 5 minutes, and calcium ionophores A23187 were added thereto in such a manner that the concentration of […] was obtained in the end. The reaction was allowed to proceed at 37 for 10 minutes, and the supernatant was sampled for the ELISA assay (Cayman Chemical, Catalog No. 520111, and J. Immunol., 119:618-622, 1977) of leukotrien B4 (LTB4). IC50 of a given compound of this invention for inhibition of leukotrien production was calculated relative to the production of LTB4 when the compound was not coexistent.

O=C(Cc1ccc(Oc2ccc3ccccc3c2)cc1)Nc1ccccc1C(=O)O [Compound No. 1126, 2-(4-(2-naphtyloxy)phenylacetamide)benzoic acid]
inhibition at 3 µM (TF (tissue factor)): 26.5% | Inhibition of antibody production (%) IgE (IgE): 78.9% | Inhibition of antibody production (%) IgG1 (IgG1): 46.8% | Inhibition of antibody production (%) IgM (IgM): 70.2% | Inhibition of histamine release (%) (human basophils): 55.8% | pIC50 [1]: 6.22

O=C(Nc1ccccc1C(=O)O)c1ccc(Oc2ccc3ccccc3c2)cc1 [Compound No. 1104, 2-(4-(2-naphtyloxy)benzamide)benzoic Acid]
inhibition at 1 µM (TF (tissue factor); 1 μM): 45.3% | inhibition at 3 µM (TF (tissue factor)): 90.4% | inhibition at 10 µM (TF (tissue factor); 10 μM): 100% | Inhibition of antibody production (%) IgE (IgE): 60.4% | Inhibition of antibody production (%) IgG1 (IgG1): 24.4% | Inhibition of antibody production (%) IgM (IgM): 56.1% | Inhibition of histamine release (%) (human basophils): 20.4% | pIC50 [1]: 6.68
